Tests used:
Experiment in all cases: relative viability (nuclei count vs DMSO), 5 days (fraction); higher = more cells survive
[1] = compound: CCn1c(-c2nonc2N)nc2c(C#CC(C)(C)O)ncc(OC[C@H]3CCCNC3)c21 + Cc1cc(Nc2cc(N3CCN(C)CC3)nc(Sc3ccc(NC(=O)C4CC4)cc3)n2)n[nH]1 [Tozasertib] (partner 0.1 µM)
In short: (§1)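 Relative viability was taken as the ratio of nuclei in treated wells to nuclei in vehicle wells. Lung cancer cell lines in 1536-well plates received compounds by pin tool one day after seeding, either one drug alone or a fixed anchor-drug dose plus five library-drug doses (not always all listed) in √10 steps. Nuclei were counted on 4× images after 5 days of treatment, and values are medians of duplicate plates.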

BAM7 + Dasatinib = compound: CCOC1=CC=CC=C1N=NC2=C(NN(C2=O)C3=NC(=CS3)C4=CC=CC=C4)C [BAM7] + Cc1nc(Nc2ncc(C(=O)Nc3c(C)cccc3Cl)s2)cc(N2CCN(CCO)CC2)n1 [Dasatinib] (partner 0.075 µM)
In short: as §1

[2] = compound: CCn1c(-c2nonc2N)nc2c(C#CC(C)(C)O)ncc(OC[C@H]3CCCNC3)c21 + Nc1nc2[nH]cc(CCc3ccc(C(=O)N[C@@H](CCC(=O)O)C(=O)O)cc3)c2c(=O)[nH]1 [Pemetrexed] (partner 0.2 µM)
In short: as §1

BAM7 + Navitoclax = compound: CCOC1=CC=CC=C1N=NC2=C(NN(C2=O)C3=NC(=CS3)C4=CC=CC=C4)C [BAM7] + CC1(C)CCC(c2ccc(Cl)cc2)=C(CN2CCN(c3ccc(C(=O)NS(=O)(=O)c4ccc(N[C@H](CCN5CCOCC5)CSc5ccccc5)c(S(=O)(=O)C(F)(F)F)c4)cc3)CC2)C1 [Navitoclax] (partner 0.5 µM)
In short: as §1

HOP-62
relative viability ([1]; first compound 0.01 µM): 0.369 | relative viability ([1]; first compound 0.03162 µM): 0.316 | relative viability ([1]; first compound 0.1 µM): 0.308 | relative viability ([1]; first compound 0.3162 µM): 0.406 | relative viability ([1]; first compound 1 µM): 0.404 | relative viability (BAM7 + Dasatinib; first compound 0.5 µM): 0.636 | relative viability (BAM7 + Dasatinib; first compound 5 µM): 0.727 | relative viability (BAM7 + Dasatinib; first compound 15.81 µM): 0.601 | relative viability (BAM7 + Dasatinib; first compound 50 µM): 0.649 | relative viability ([2]; first compound 0.01 µM): 0.289 | relative viability ([2]; first compound 0.03162 µM): 0.407 | relative viability ([2]; first compound 0.1 µM): 0.289 | relative viability ([2]; first compound 0.3162 µM): 0.288 | relative viability ([2]; first compound 1 µM): 0.286 | relative viability (BAM7 + Navitoclax; first compound 0.5 µM): 1.03 | relative viability (BAM7 + Navitoclax; first compound 5 µM): 1.23 | relative viability (BAM7 + Navitoclax; first compound 15.81 µM): 1.04 | relative viability (BAM7 + Navitoclax; first compound 50 µM): 1.06

IA-LM
relative viability (BAM7 + Navitoclax; first compound 0.5 µM): 0.689 | relative viability (BAM7 + Navitoclax; first compound 5 µM): 0.556 | relative viability (BAM7 + Navitoclax; first compound 15.81 µM): 0.556 | relative viability (BAM7 + Navitoclax; first compound 50 µM): 0.658

LC-2-ad
relative viability ([1]; first compound 0.01 µM): 0.457 | relative viability ([1]; first compound 0.03162 µM): 0.442 | relative viability ([1]; first compound 0.1 µM): 0.474 | relative viability ([1]; first compound 0.3162 µM): 0.44 | relative viability ([1]; first compound 1 µM): 0.451 | relative viability (BAM7 + Dasatinib; first compound 0.5 µM): 0.8 | relative viability (BAM7 + Dasatinib; first compound 5 µM): 0.555 | relative viability (BAM7 + Dasatinib; first compound 15.81 µM): 0.546 | relative viability (BAM7 + Dasatinib; first compound 50 µM): 0.639 | relative viability ([2]; first compound 0.01 µM): 0.267 | relative viability ([2]; first compound 0.03162 µM): 0.283 | relative viability ([2]; first compound 0.1 µM): 0.261 | relative viability ([2]; first compound 0.3162 µM): 0.262 | relative viability ([2]; first compound 1 µM): 0.272 | relative viability (BAM7 + Navitoclax; first compound 0.5 µM): 0.548 | relative viability (BAM7 + Navitoclax; first compound 5 µM): 0.532 | relative viability (BAM7 + Navitoclax; first compound 15.81 µM): 0.422 | relative viability (BAM7 + Navitoclax; first compound 50 µM): 0.464

LCLC-97TM1
relative viability ([1]; first compound 0.01 µM): 0.203 | relative viability ([1]; first compound 0.03162 µM): 0.31 | relative viability ([1]; first compound 0.1 µM): 0.211 | relative viability ([1]; first compound 0.3162 µM): 0.271 | relative viability ([1]; first compound 1 µM): 0.204 | relative viability (BAM7 + Dasatinib; first compound 0.5 µM): 1.05 | relative viability (BAM7 + Dasatinib; first compound 5 µM): 1.04 | relative viability (BAM7 + Dasatinib; first compound 15.81 µM): 0.881 | relative viability (BAM7 + Dasatinib; first compound 50 µM): 0.945 | relative viability ([2]; first compound 0.01 µM): 0.169 | relative viability ([2]; first compound 0.03162 µM): 0.179 | relative viability ([2]; first compound 0.1 µM): 0.141 | relative viability ([2]; first compound 0.3162 µM): 0.147 | relative viability ([2]; first compound 1 µM): 0.175 | relative viability (BAM7 + Navitoclax; first compound 0.5 µM): 0.569 | relative viability (BAM7 + Navitoclax; first compound 5 µM): 0.401 | relative viability (BAM7 + Navitoclax; first compound 15.81 µM): 0.419 | relative viability (BAM7 + Navitoclax; first compound 50 µM): 0.61

LCLC-103H
relative viability ([1]; first compound 0.01 µM): 0.41 | relative viability ([1]; first compound 0.03162 µM): 0.555 | relative viability ([1]; first compound 0.1 µM): 0.432 | relative viability ([1]; first compound 0.3162 µM): 0.472 | relative viability ([1]; first compound 1 µM): 0.453 | relative viability (BAM7 + Dasatinib; first compound 0.5 µM): 0.46 | relative viability (BAM7 + Dasatinib; first compound 5 µM): 0.512 | relative viability (BAM7 + Dasatinib; first compound 15.81 µM): 0.523 | relative viability (BAM7 + Dasatinib; first compound 50 µM): 0.523 | relative viability ([2]; first compound 0.01 µM): 0.449 | relative viability ([2]; first compound 0.03162 µM): 0.498 | relative viability ([2]; first compound 0.1 µM): 0.476 | relative viability ([2]; first compound 0.3162 µM): 0.456 | relative viability ([2]; first compound 1 µM): 0.439

LK-2
relative viability ([1]; first compound 0.01 µM): 0.165 | relative viability ([1]; first compound 0.03162 µM): 0.171 | relative viability ([1]; first compound 1 µM): 0.184 | relative viability (BAM7 + Dasatinib; first compound 0.5 µM): 0.242 | relative viability (BAM7 + Dasatinib; first compound 5 µM): 0.299 | relative viability (BAM7 + Dasatinib; first compound 15.81 µM): 0.255 | relative viability (BAM7 + Dasatinib; first compound 50 µM): 0.447 | relative viability ([2]; first compound 0.01 µM): 0.277 | relative viability ([2]; first compound 0.03162 µM): 0.333 | relative viability ([2]; first compound 0.1 µM): 0.269 | relative viability ([2]; first compound 0.3162 µM): 0.204 | relative viability ([2]; first compound 1 µM): 0.234 | relative viability (BAM7 + Navitoclax; first compound 0.5 µM): 0.896 | relative viability (BAM7 + Navitoclax; first compound 5 µM): 0.893 | relative viability (BAM7 + Navitoclax; first compound 15.81 µM): 0.886 | relative viability (BAM7 + Navitoclax; first compound 50 µM): 0.85

LOU-NH91
relative viability ([1]; first compound 0.01 µM): 0.702 | relative viability ([1]; first compound 0.03162 µM): 0.763 | relative viability ([1]; first compound 0.1 µM): 0.634 | relative viability ([1]; first compound 0.3162 µM): 0.665 | relative viability ([1]; first compound 1 µM): 0.732 | relative viability (BAM7 + Dasatinib; first compound 0.5 µM): 0.495 | relative viability (BAM7 + Dasatinib; first compound 5 µM): 0.658 | relative viability (BAM7 + Dasatinib; first compound 15.81 µM): 0.535 | relative viability (BAM7 + Dasatinib; first compound 50 µM): 0.552 | relative viability ([2]; first compound 0.01 µM): 0.403 | relative viability ([2]; first compound 0.03162 µM): 0.366 | relative viability ([2]; first compound 0.1 µM): 0.419 | relative viability ([2]; first compound 0.3162 µM): 0.4 | relative viability ([2]; first compound 1 µM): 0.399 | relative viability (BAM7 + Navitoclax; first compound 0.5 µM): 0.708 | relative viability (BAM7 + Navitoclax; first compound 5 µM): 0.75 | relative viability (BAM7 + Navitoclax; first compound 15.81 µM): 0.69 | relative viability (BAM7 + Navitoclax; first compound 50 µM): 0.655

LU99A
relative viability ([1]; first compound 0.01 µM): 0.296 | relative viability ([1]; first compound 0.03162 µM): 0.268 | relative viability ([1]; first compound 0.1 µM): 0.296 | relative viability ([1]; first compound 0.3162 µM): 0.308 | relative viability ([1]; first compound 1 µM): 0.315 | relative viability (BAM7 + Dasatinib; first compound 0.5 µM): 0.661 | relative viability (BAM7 + Dasatinib; first compound 5 µM): 0.642 | relative viability (BAM7 + Dasatinib; first compound 15.81 µM): 0.577 | relative viability (BAM7 + Dasatinib; first compound 50 µM): 0.476 | relative viability ([2]; first compound 0.01 µM): 0.182 | relative viability ([2]; first compound 0.03162 µM): 0.201 | relative viability ([2]; first compound 0.1 µM): 0.154 | relative viability ([2]; first compound 0.3162 µM): 0.141 | relative viability ([2]; first compound 1 µM): 0.193 | relative viability (BAM7 + Navitoclax; first compound 0.5 µM): 0.787 | relative viability (BAM7 + Navitoclax; first compound 5 µM): 0.849 | relative viability (BAM7 + Navitoclax; first compound 15.81 µM): 0.72 | relative viability (BAM7 + Navitoclax; first compound 50 µM): 0.821

LXF-289
relative viability ([1]; first compound 0.01 µM): 0.218 | relative viability ([1]; first compound 0.03162 µM): 0.194 | relative viability ([1]; first compound 0.1 µM): 0.169 | relative viability ([1]; first compound 0.3162 µM): 0.184 | relative viability ([1]; first compound 1 µM): 0.197 | relative viability (BAM7 + Dasatinib; first compound 0.5 µM): 0.276 | relative viability (BAM7 + Dasatinib; first compound 5 µM): 0.235 | relative viability (BAM7 + Dasatinib; first compound 15.81 µM): 0.256 | relative viability (BAM7 + Dasatinib; first compound 50 µM): 0.253 | relative viability ([2]; first compound 0.01 µM): 0.922 | relative viability ([2]; first compound 0.03162 µM): 0.95 | relative viability ([2]; first compound 0.1 µM): 0.925 | relative viability ([2]; first compound 0.3162 µM): 0.84 | relative viability ([2]; first compound 1 µM): 0.938 | relative viability (BAM7 + Navitoclax; first compound 0.5 µM): 0.96 | relative viability (BAM7 + Navitoclax; first compound 5 µM): 1.04 | relative viability (BAM7 + Navitoclax; first compound 15.81 µM): 0.93 | relative viability (BAM7 + Navitoclax; first compound 50 µM): 0.907

NCI-H23
relative viability ([1]; first compound 0.01 µM): 0.398 | relative viability ([1]; first compound 0.03162 µM): 0.438 | relative viability ([1]; first compound 0.1 µM): 0.568 | relative viability ([1]; first compound 0.3162 µM): 0.384 | relative viability ([1]; first compound 1 µM): 0.432 | relative viability (BAM7 + Dasatinib; first compound 0.5 µM): 0.892 | relative viability (BAM7 + Dasatinib; first compound 5 µM): 0.813 | relative viability (BAM7 + Dasatinib; first compound 15.81 µM): 0.732 | relative viability (BAM7 + Dasatinib; first compound 50 µM): 0.868 | relative viability ([2]; first compound 0.01 µM): 0.647 | relative viability ([2]; first compound 0.03162 µM): 0.642 | relative viability ([2]; first compound 0.1 µM): 0.58 | relative viability ([2]; first compound 0.3162 µM): 0.579 | relative viability ([2]; first compound 1 µM): 0.611 | relative viability (BAM7 + Navitoclax; first compound 0.5 µM): 0.978 | relative viability (BAM7 + Navitoclax; first compound 5 µM): 0.846 | relative viability (BAM7 + Navitoclax; first compound 15.81 µM): 0.921 | relative viability (BAM7 + Navitoclax; first compound 50 µM): 0.934
